US10570077B2, “Substituted (4'-hydroxyphenyl)cyclohexane compounds and uses thereof as selective agonists of the estrogen receptor beta isoform” (Marquette University, priority 2013, dated 2020)
Values joined by “and” are separate entries in the source; they are usually repeats but may differ in a detail not shown here. Equal entries are not always repeated. Where two headings read alike, the source gives them in different places.

Legend:
[1] = biological target: T1, ERα (Homo sapiens (Human), UniProt P03372); assay: Fluorescence polarization displacement assay (FITC-estradiol tracer); format: binding; settings: for affinity for ERα (qualitative): at concentrations as high as 1 μM; for IC50: read-out: IC50 (ERα affinity, fluorescence polarization displacement assay)
Protocol: ([Tr]) was 10 nM. Sample volume was 150 μL. For each experiment the polarization was calibrated with a sample of FITC set at 20 mP. All proper blanks were used, including water for the FITC samples and blank samples containing only 30 nM ERα protein for the remaining data points.

[2] = biological target: T2, ERβ (Homo sapiens (Human), UniProt Q92731); assay: Cell-based ERβ luminescence antagonist assay (+E2)
Excerpt: (§1) ERα and ERβ assay kits for cell-based assays (Indigo Biosciences) allowed for investigation into the functional activity (i.e. agonist and/or antagonist) of the ligands identified to bind based on the initial fluorescence polarization displacement assay. Briefly, the cells contained a luciferase reporter gene that was functionally linked to either the ERα or ERβ-responsive promoter. By quantifying the luciferase expression via luminescence, the change in ER activity could be quantified. […] For the agonist assay, the cells were prepared by warming to 37° C., plated, then the chemicals added. […] The cells were then plated, and the chemicals added. All plates were incubated in a cell culture incubator at 37° C. and 5% CO2 for 22 h. Each assay was performed in duplicate. Luminescence was characterized after removal of the incubating media and introduction of the Detection Substrate using a Molecular Devices SpectraMax M5 microplate reader. Data was fitted using GraphPad Prism and fit to the dose-response (four parameter) equation as follows.

[3] = biological target: T2, ERβ; assay: Cell-based ERβ luminescence (luciferase reporter) agonist assay
Excerpt: as §1

[4] = biological target: T1, ERα; assay: Cell-based ERα luminescence (luciferase reporter) agonist assay
Excerpt: as §1

[5] = biological target: T2, ERβ; assay: TR-FRET ERβ binding assay; settings: TR-FRET tracer displacement
Protocol: The binding activity of substituted (4′-hydroxyphenyl)cycloalkane compounds was tested using a TR-FRET ERβ binding assay as illustrated in FIG. 12. […] When the tracer used in the assay is bound, then the ratio is high. When the tracer is displaced, the ratio is low. The following compounds were tested.

[6] = biological target: T1, ERα; assay: Cell-based ERα luminescence antagonist assay (+E2)
Protocol: ERα and ERβ assay kits for cell-based assays (Indigo Biosciences) allowed for investigation into the functional activity (i.e. agonist and/or antagonist) of the ligands identified to bind based on the initial fluorescence polarization displacement assay. Briefly, the cells contained a luciferase reporter gene that was functionally linked to either the ERα or ERβ-responsive promoter. By quantifying the luciferase expression via luminescence, the change in ER activity could be quantified. 1-2 mM stocks of the ligands were prepared in d6-DMSO and diluted to final concentrations ranging from 3.2 nM to 2 μM, using the Compound Screening Medium provided in the kit. For the agonist assay, the cells were prepared by warming to 37° C., plated, then the chemicals added. […] The cells were then plated, and the chemicals added. All plates were incubated in a cell culture incubator at 37° C. and 5% CO2 for 22 h. Each assay was performed in duplicate. Luminescence was characterized after removal of the incubating media and introduction of the Detection Substrate using a Molecular Devices SpectraMax M5 microplate reader. Data was fitted using GraphPad Prism and fit to the dose-response (four parameter) equation as follows.

[7] = fluorescence polarization displacement
[8] = 160 pM E2 added, read-out: ERβ antagonist IC50
[9] = normalized, read-out: ERα Normalized Agonist
[10] = normalized, read-out: ERβ Agonist normalized

T1 sequence (P03372 whole entry): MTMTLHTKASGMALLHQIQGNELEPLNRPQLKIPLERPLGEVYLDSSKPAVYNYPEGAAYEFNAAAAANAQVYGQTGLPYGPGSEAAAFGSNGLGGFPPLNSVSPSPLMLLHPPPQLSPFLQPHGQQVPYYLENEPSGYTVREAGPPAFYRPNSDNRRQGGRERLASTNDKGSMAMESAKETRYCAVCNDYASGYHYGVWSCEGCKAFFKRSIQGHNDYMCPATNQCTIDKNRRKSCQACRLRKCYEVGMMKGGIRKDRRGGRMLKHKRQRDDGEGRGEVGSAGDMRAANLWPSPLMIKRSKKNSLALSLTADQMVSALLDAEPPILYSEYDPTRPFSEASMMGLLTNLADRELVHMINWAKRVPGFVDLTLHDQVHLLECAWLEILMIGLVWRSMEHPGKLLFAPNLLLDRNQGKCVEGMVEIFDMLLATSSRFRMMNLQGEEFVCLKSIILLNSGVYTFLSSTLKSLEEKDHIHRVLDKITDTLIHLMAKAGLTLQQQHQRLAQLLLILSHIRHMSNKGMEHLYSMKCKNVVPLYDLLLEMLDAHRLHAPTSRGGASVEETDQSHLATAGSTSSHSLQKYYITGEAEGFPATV
T2 sequence (Q92731 whole entry): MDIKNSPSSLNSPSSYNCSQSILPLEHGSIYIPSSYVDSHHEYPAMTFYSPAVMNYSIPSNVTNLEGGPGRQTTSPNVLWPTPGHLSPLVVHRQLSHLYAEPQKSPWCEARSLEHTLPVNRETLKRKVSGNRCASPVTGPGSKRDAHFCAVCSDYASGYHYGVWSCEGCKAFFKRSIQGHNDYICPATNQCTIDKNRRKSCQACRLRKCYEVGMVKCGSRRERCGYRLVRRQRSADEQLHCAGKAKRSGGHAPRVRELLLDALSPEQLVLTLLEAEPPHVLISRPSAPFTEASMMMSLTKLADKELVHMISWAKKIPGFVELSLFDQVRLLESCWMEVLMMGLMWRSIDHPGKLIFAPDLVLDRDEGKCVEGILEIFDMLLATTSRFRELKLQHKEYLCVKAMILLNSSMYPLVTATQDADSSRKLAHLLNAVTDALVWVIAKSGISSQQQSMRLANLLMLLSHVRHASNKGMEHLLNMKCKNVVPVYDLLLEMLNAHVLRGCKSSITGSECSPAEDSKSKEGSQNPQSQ

With `OC[C@H]1CCC[C@@H](c2ccc(O)cc2)CC1` (racemic) [Compound 18, cis-1-Hydroxymethyl-4-(4′-hydroxyphenyl)-cycloheptane] the Kd ([1]; accurate Kd could not be obtained, estimated) was > 1000 nM, the IC50 ([2]; read-out: ERβ antagonist IC50) was 137 ± 100 nM and the IC50 [3] was 5.4 ± 0.3 nM.

`OC[C@H]1CCC[C@@H](c2ccc(O)cc2)CC1` (relative stereo) [Compound 18, cis-1-Hydroxymethyl-4-(4′-hydroxyphenyl)-cycloheptane] was tested, and the “affinity for ERα (qualitative)” value [1] was “significant affinity” and the “ERβ antagonist activity (qualitative)” value [2] was “ERβ antagonist activity”.

For `C[C@]12CC[C@@H]3c4ccc(O)cc4CC[C@H]3[C@@H]1CC=C2CO` [Compound 2, 3-Hydroxvestra-1,3,5(10),16-tetraene-17-methanol], the “ERα agonist activity (qualitative)” value [4] was “agonist activity”, the “ERβ antagonist activity (qualitative)” value [2] was “not ERβ antagonists” and the IC50 [3] was 6.8 ± 0.2 nM.

`CCCOC(=O)C1CC[C@H]2[C@@H]3CCc4cc(O)ccc4[C@H]3CC[C@]12C` (some centres unmarked) [Compound 4, n-Propyl 3-hydroxyestra-1,3,5(10)-triene-17-carboxylate] was tested, and the Kd [1, 7] was 320 ± 40 nM, the IC50 [1] was 160 to 320 nM and the IC50 [4] was 92 ± 1 nM. The IC50 [3] was 9.8 ± 2 nM.

With `CC[C@H](C)C1=CC[C@H]2[C@@H]3CCc4cc(O)ccc4[C@H]3CC[C@]12C` [Compound 7, (20S) 3-Hydroxy-19,24-dinorchola-1,3,5(10),16-tetraene] the “affinity for ERα (qualitative)” value [1] was “significant affinity”, the Kd [1, 7] was 160 ± 10 nM and the IC50 [1] was 160 to 320 nM. The “ERβ antagonist activity (qualitative)” value [2] was “ERβ antagonist activity”, the IC50 [2, 8] was 70 ± 15 nM and the IC50 [3] was 88 ± 9 nM.

With `C[C@@H](CCO)C1=CC[C@H]2[C@@H]3CCc4cc(O)ccc4[C@H]3CC[C@]12C` [Compound 11, (20S) 3-Hydroxy-19,24-Dinorchola-1,3,5(10),16-tetraen-23-ol] the “affinity for ERα (qualitative)” value [1] was “significant affinity”, the Kd [1, 7] was 320 ± 40 nM and the “ERβ antagonist activity (qualitative)” value [2] was “ERβ antagonist activity”. The IC50 [2, 8] was 275 ± 40 nM and the IC50 [3] was 108 ± 67 nM.

`CC1C[C@H](C)C2(CC[C@H]3[C@@H]4CCc5cc(O)ccc5[C@H]4CC[C@@]32C)O1` (some centres unmarked) [Compound 13, 17,23-Epoxy-3-hydroxy-19-norchola-1,3,5(10)-triene] was tested, and the “affinity for ERα (qualitative)” value [1] was “significant affinity”, the Kd [1, 7] was 160 ± 10 nM and the “ERα agonist activity (qualitative)” value [4] was “agonist activity”. For the same compound, the IC50 [4] was 484 ± 1 nM, the “ERβ antagonist activity (qualitative)” value [2] was “not ERβ antagonists” and the IC50 [3] was 111 ± 26 nM.

In the case of `OCC1CCC[C@@H](c2ccc(O)cc2)CC1` (some centres unmarked) [ISP-163], the IC50 [5] is reported as 23.5 ± 8 nM, the EC50 [4, 9] is reported as 10500 ± 200 nM and the EC50 ([4]; read-out: ERα Agonist) is reported as > 10000 nM. The IC50 [2] was > 100000 nM, the IC50 [6] was > 10000 nM and the EC50 ([3]; read-out: ERβ Agonist) was 30 nM and 33 nM.

`O/N=C1/CCCC(c2ccc(O)cc2)CC1` (centres unmarked) [ISP-166] was tested, and the EC50 [4, 9] was 350000 ± 250000 nM, the EC50 ([4]; read-out: ERα Agonist) was > 10000 nM and the IC50 [2] was > 10000 nM. For the same compound, the IC50 [6] was > 10000 nM and the EC50 ([3]; read-out: ERβ Agonist) was 731 ± 85 nM.

For `OCC1CCC(c2ccc(O)cc2)CC1` (centres unmarked) [ISP-171], the EC50 [4, 9] was 700000 ± 80000 nM, the EC50 ([4]; read-out: ERα Agonist) was > 10000 nM and the IC50 [6] was > 10000 nM.

In the case of `OCCC1CCCC(c2ccc(O)cc2)CC1` (centres unmarked) [ISP-248], the IC50 [5] is reported as 36.8 ± 9.2 nM, the EC50 [4, 9] is reported as 45000 ± 17000 nM and the EC50 ([4]; read-out: ERα Agonist) is reported as > 10000 nM. The IC50 [2] was > 10000 nM, the IC50 [6] was > 10000 nM and the EC50 [3, 10] was 104 nM. The EC50 ([3]; read-out: ERβ Agonist) was 142 ± 17 nM.

`OC[C@H]1C=CCC(c2ccc(O)cc2)C=C1` (some centres unmarked) [RKP-35c] showed an IC50 [5] of 378 ± 97 nM.

Compound `OCC=C1CCC(c2ccc(O)cc2)CC1` (centres unmarked) [RKP-228] has an IC50 [5] of 521 ± 87 nM.

`CCC1CCC(c2ccc(O)cc2)CC1` (centres unmarked) [RKP-231 IF] was tested, and the IC50 [5] was 15.2 ± 1.5 nM, the EC50 [4, 9] was 25000 ± 1300 nM and the EC50 ([4]; read-out: ERα Agonist) was > 10000 nM. For the same compound, the IC50 ([2]; read-out: ERβ Antagonist (+E2), +E2) was > 10000 nM, the IC50 ([6]; read-out: ERα Antagonist (+E2), +E2) was > 10000 nM and the EC50 [3, 10] was 89 nM. The EC50 ([3]; read-out: ERβ Agonist) was 93 ± 7 nM.
